pIC50: −log10 of the molar value. Where two headings read alike, the source gives them in different places.
Assays:
[1] = target: T1, γ-secretase in the HeLa membrane (Homo sapiens, UniProt P05067); test: AlphaLISA γ-secretase assay with biotinylated Sb4 (APP sequence) substrate; format: biochemical; parameters: other: γ-secretase in HeLa membrane, Sb4 substrate; fused on or other part: Biotin label on Sb4; settings: γ-secretase in HeLa membrane, Sb4 substrate
Text: (§1) Referring now to FIG. 1, and without wishing to be bound by theory, γ-secretase cleaves within the transmembrane domain of the amyloid precursor protein (APPTM) to release Aβ, which aggregates to form neurotoxic oligomers and fibrils. […] Formula III decreased the production of Aβ40 and Aβ42 by γ-secretase in a dose dependent manner (FIG. 2).

[2] = target: T1, γ-secretase in the HeLa membrane; test: as above; format: biochemical; parameters: fused on or other part: Biotin label on Sb4; settings: from lower IC50 for Aβ42 than Aβ40
Text: as §1

T1 sequence (P05067 whole entry, the tested form may be a part): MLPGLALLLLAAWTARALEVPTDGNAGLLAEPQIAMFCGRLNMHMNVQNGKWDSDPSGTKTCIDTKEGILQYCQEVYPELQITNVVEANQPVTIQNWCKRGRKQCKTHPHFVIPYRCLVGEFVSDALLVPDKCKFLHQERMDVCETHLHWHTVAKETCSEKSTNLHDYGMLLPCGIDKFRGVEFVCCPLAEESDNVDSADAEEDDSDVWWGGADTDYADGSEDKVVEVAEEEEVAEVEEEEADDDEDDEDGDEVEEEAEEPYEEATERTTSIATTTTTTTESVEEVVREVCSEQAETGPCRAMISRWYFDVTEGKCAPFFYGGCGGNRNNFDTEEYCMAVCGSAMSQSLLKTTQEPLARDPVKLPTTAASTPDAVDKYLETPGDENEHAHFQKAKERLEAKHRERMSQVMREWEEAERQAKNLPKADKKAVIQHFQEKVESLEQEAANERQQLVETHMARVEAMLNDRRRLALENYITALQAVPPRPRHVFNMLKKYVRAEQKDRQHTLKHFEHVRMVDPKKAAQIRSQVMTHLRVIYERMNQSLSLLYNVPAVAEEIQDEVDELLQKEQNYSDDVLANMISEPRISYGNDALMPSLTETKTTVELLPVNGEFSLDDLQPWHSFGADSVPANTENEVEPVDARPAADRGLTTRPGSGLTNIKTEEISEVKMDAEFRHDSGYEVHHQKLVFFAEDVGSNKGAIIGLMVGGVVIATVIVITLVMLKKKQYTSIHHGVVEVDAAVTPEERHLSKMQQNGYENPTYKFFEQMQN

O=C(C=COc1ccc2ccccc2c1)c1ccc(F)cc1 [Formula III]
pIC50 ([1]; read-out: IC50 for the inhibition of Aβ40 production): 5.41
pIC50 ([1]; read-out: IC50 for the inhibition of Aβ42 production): 5.72
selectivity in inhibiting Aβ42 production over Aβ40 [2]: selectivity in inhibiting Aβ42 production over Aβ40

Reference: patent US12297244B2, “Systems and methods for inhibiting γ-secretase production of amyloid-β peptides” (Rensselaer Polytechnic Institute, priority 2020, dated 2025)
